From the NIST ThermoML archive (doi:10.1007/s10765-014-1759-1)
± gives the expanded uncertainty stated by the source.

Conditions: 101.33 kPa, Liquid; for viscosity: Capillary tube (Ostwald / Ubbelohde) method; for mass density: Vibrating tube method

SMILES	viscosity (293.15 K) [mPa·s]	mass density (293.15 K) [kg/m3]	viscosity (298.15 K) [mPa·s]	mass density (298.15 K) [kg/m3]
Cc1ccccc1 [toluene]	0.5891 ± 0.0061	866.7 ± 0.6	0.5528 ± 0.006	862 ± 0.6
C1CCCCC1 [cyclohexane]	0.978 ± 0.0084	778.7 ± 0.3	0.8931 ± 0.0079	773.9 ± 0.3
CCCCCCCC [octane]	0.5433 ± 0.0059	702.5 ± 0.6	0.5108 ± 0.0057	698.5 ± 0.6

The next lines start with the values.

viscosity (293.15 K) [mPa·s]	mass density (293.15 K) [kg/m3]	viscosity (298.15 K) [mPa·s]	mass density (298.15 K) [kg/m3]	SMILES
0.412 ± 0.0053	684 ± 0.6	0.3895 ± 0.0052	679.7 ± 0.6	CCCCCCC [heptane]
0.6735 ± 0.0066	867.1 ± 0.6	0.6318 ± 0.0064	862.7 ± 0.6	CCc1ccccc1 [ethylbenzene]
